This note sets out measurements from patent US6552080B1, “Fungicidal compounds having a fluorovinyl-or fluoropropenyl-oxyphenyloxime moiety and process for the preparation thereof” (Korea Research Institute of Chemical Technology, priority 1999, dated 2003).

The structures appear in SMILES notation. Like-named read-outs stand apart in the source and are kept apart here.

For assay [1], the system named is Pyricularia oryzae Carvara KA301. Type of assay: in vivo. The following applies: for RCV (Fungicidal Activities, C.V.): Rice Blast.
Another assay relates to Botrytis cinerae. The assay is described as follows: Fungicidal activity against Cucumber Gray Mold Rot (CGM) disease. Type of assay: in vivo. The following applies: for CGM (Fungicidal Activities, C.V.): Cucumber Gray Mold Rot, concentration 50 ppm; for Fungicidal Activities CGM (C.V.): 50 ppm.
The test system of the next assay is Phytophthora infestans. Type of assay: in vivo. The following applies: for TLB (Fungicidal Activities, C.V.): Tomato Late Blight, concentration 50 ppm.
The subject of a further assay is Puccinia recondita. The assay is described as follows: Fungicidal activity against Wheat Leaf Rust (WLR) disease. Type of assay: in vivo. The following applies: for WLR (Fungicidal Activities, C.V.): Wheat Leaf Rust.
The subject of another assay is Erysiphae graminis. Put plainly: Fungicidal activity against Barley Powdery Mildew (BPM) disease. Type of assay: in vivo. The following applies: for BPM (Fungicidal Activities, C.V.): Barley Powdery Mildew.
For a further assay, the system named is Rhizoctonia solani AG-1. The assay is described as follows: Fungicidal activity against Rice Sheath Blight (RSB) disease. The following applies: for RSB (Fungicidal Activities, C.V.): Rice Sheath Blight.

For `COC=C(C(=O)OC)c1ccccc1CON=C(C)c1cccc(OC(F)=C(c2cccc(F)c2)C(F)(F)F)c1` [Compound 159], the “RCV (Fungicidal Activities, C.V.)” value was determined as 25% in assay [1] (concentration 2 ppm), 91% in assay [1] (concentration 10 ppm) and 96% in assay [1] (concentration 50 ppm). The “CGM (Fungicidal Activities, C.V.)” value in the assay on Botrytis cinerae came to 52%. Further, the “TLB (Fungicidal Activities, C.V.)” value in the assay on Phytophthora infestans turned out to be 20%. The “WLR (Fungicidal Activities, C.V.)” value in the assay with Puccinia recondita (concentration 2 ppm) is recorded as 94%; in the assay on Puccinia recondita (concentration 10 ppm), 100%; in the assay with Puccinia recondita (concentration 50 ppm), 100%. The “BPM (Fungicidal Activities, C.V.)” value amounted to 99% in the assay on Erysiphae graminis (concentration 2 ppm), 100% with Erysiphae graminis (concentration 10 ppm) and 100% with Erysiphae graminis (concentration 50 ppm). Also, in the assay on Rhizoctonia solani AG-1 (concentration 50 ppm), the “RSB (Fungicidal Activities, C.V.)” value is 65%.
As for `COC=C(C(=O)OC)c1ccccc1CON=C(C)c1cccc(OC(F)=C(c2ccc(OC)cc2)C(F)(F)F)c1` [Compound 158], in assay [1] (concentration 50 ppm), the “RCV (Fungicidal Activities, C.V.)” value came out at 41%. Also, the “CGM (Fungicidal Activities, C.V.)” value with Botrytis cinerae is recorded as 44%. In addition, the “TLB (Fungicidal Activities, C.V.)” value in the assay on Phytophthora infestans was determined as 0%. In addition, the “WLR (Fungicidal Activities, C.V.)” value in the assay with Puccinia recondita (concentration 2 ppm) is on record as 91%; in the assay with Puccinia recondita (concentration 10 ppm), 98%; in the assay with Puccinia recondita (concentration 50 ppm), 100%. Besides, the “BPM (Fungicidal Activities, C.V.)” value came to 98% in the assay with Erysiphae graminis (concentration 2 ppm), 100% in the assay on Erysiphae graminis (concentration 10 ppm) and 100% in the assay with Erysiphae graminis (concentration 50 ppm). Further, in the assay on Rhizoctonia solani AG-1 (concentration 50 ppm), the “RSB (Fungicidal Activities, C.V.)” value is 70%.
With `COC=C(C(=O)OC)c1ccccc1CON=C(C)c1cccc(OC(F)=Cc2cc(C)cc(C)c2)c1` [Compound 44], the “RCV (Fungicidal Activities, C.V.)” value in assay [1] (concentration 2 ppm) is given as 85%; in assay [1] (concentration 10 ppm) it was 95%; in assay [1] (concentration 50 ppm), 100%. Further, the “CGM (Fungicidal Activities, C.V.)” value in the assay with Botrytis cinerae is 5%. For the same compound, the “TLB (Fungicidal Activities, C.V.)” value with Phytophthora infestans is on record as 71%. Moreover, the “WLR (Fungicidal Activities, C.V.)” value in the assay with Puccinia recondita (concentration 2 ppm) was 96%; in the assay with Puccinia recondita (concentration 10 ppm) it was 100%; in the assay on Puccinia recondita (concentration 50 ppm), 100%. The “BPM (Fungicidal Activities, C.V.)” value in the assay with Erysiphae graminis (concentration 2 ppm), in the assay on Erysiphae graminis (concentration 10 ppm) and with Erysiphae graminis (concentration 50 ppm) was 100% each time. In the assay with Rhizoctonia solani AG-1 (concentration 50 ppm), the “RSB (Fungicidal Activities, C.V.)” value came out at 75%.
For `CON=C(C(=O)OC)c1ccccc1CON=C(C)c1cccc(OC(F)=C(c2ccc3c(c2)OCO3)C(F)(F)F)c1` [Compound 190], the “Fungicidal Activities RCV (C.V.)” value in assay [1] (2 ppm) stood at 66%; in assay [1] (50 ppm), 93%. Further, the “Fungicidal Activities CGM (C.V.)” value in the assay on Botrytis cinerae was 0%. Further, the “Fungicidal Activities TLB (C.V.)” value in the assay with Phytophthora infestans (2 ppm) and in the assay on Phytophthora infestans (50 ppm) was 0% in each case. For the same compound, the “Fungicidal Activities WLR (C.V.)” value was 93% in the assay on Puccinia recondita (2 ppm) and 100% in the assay with Puccinia recondita (50 ppm). Moreover, the “Fungicidal Activities BPM (C.V.)” value in the assay with Erysiphae graminis (2 ppm) amounted to 91%; in the assay with Erysiphae graminis (50 ppm), 100%. For the same compound, the “Fungicidal Activities RSB (C.V.)” value in the assay with Rhizoctonia solani AG-1 (2 ppm) is 15%; in the assay on Rhizoctonia solani AG-1 (50 ppm), 65%.
On to `CO/C=C(/C(=O)OC)c1ccccc1CON=Cc1cccc(OC(F)=Cc2ccccc2)c1` [Compound 1], for which the figures for the “RCV (Fungicidal Activities, C.V.)” value in assay [1] (concentration 2 ppm), in assay [1] (concentration 10 ppm) and in assay [1] (concentration 50 ppm) were 71%, 86% and 100%, respectively. Also, the “CGM (Fungicidal Activities, C.V.)” value in the assay on Botrytis cinerae is 69%. Besides, in the assay on Phytophthora infestans, the “TLB (Fungicidal Activities, C.V.)” value is on record as 12%. Besides, the “WLR (Fungicidal Activities, C.V.)” value was determined as 96% in the assay on Puccinia recondita (concentration 2 ppm), 100% in the assay with Puccinia recondita (concentration 10 ppm) and 100% in the assay with Puccinia recondita (concentration 50 ppm). In addition, the entries for the “BPM (Fungicidal Activities, C.V.)” value in the assay on Erysiphae graminis (concentration 2 ppm), in the assay on Erysiphae graminis (concentration 10 ppm) and in the assay on Erysiphae graminis (concentration 50 ppm) were 99%, 100% and 100%, respectively. For the same compound, in the assay with Rhizoctonia solani AG-1 (concentration 50 ppm), the “RSB (Fungicidal Activities, C.V.)” value came out at 65%.
For the compound `CON=C(C(=O)OC)c1ccccc1CON=Cc1cccc(OC(F)=Cc2ccc(OC)cc2)c1` [Compound 26], the “RCV (Fungicidal Activities, C.V.)” value in assay [1] (concentration 50 ppm) is 95%. In the assay on Botrytis cinerae, the “CGM (Fungicidal Activities, C.V.)” value is 77%. Besides, the “TLB (Fungicidal Activities, C.V.)” value in the assay on Phytophthora infestans was determined as 90%. Besides, the “WLR (Fungicidal Activities, C.V.)” value in the assay with Puccinia recondita (concentration 50 ppm) amounted to 93%. The “BPM (Fungicidal Activities, C.V.)” value in the assay with Erysiphae graminis (concentration 50 ppm) stood at 100%. In addition, the “RSB (Fungicidal Activities, C.V.)” value in the assay on Rhizoctonia solani AG-1 (concentration 50 ppm) turned out to be 77%.
On to `CNC(=O)C(=NOC)c1ccccc1CON=C(C)c1cccc(OC(F)=C(c2ccccc2)C(F)(F)F)c1` [Compound 191], for which the “Fungicidal Activities RCV (C.V.)” value in assay [1] (2 ppm) and in assay [1] (50 ppm) was 100% in each case. Further, the “Fungicidal Activities CGM (C.V.)” value in the assay with Botrytis cinerae came out at 68%. Besides, the “Fungicidal Activities TLB (C.V.)” value is reported as 0% in the assay on Phytophthora infestans (2 ppm) and 60% in the assay with Phytophthora infestans (50 ppm). In addition, the “Fungicidal Activities WLR (C.V.)” value in the assay with Puccinia recondita (2 ppm) came out at 99%; in the assay with Puccinia recondita (50 ppm), 100%. In addition, the “Fungicidal Activities BPM (C.V.)” value in the assay on Erysiphae graminis (2 ppm) and in the assay with Erysiphae graminis (50 ppm) was 100% in each case. In addition, the “Fungicidal Activities RSB (C.V.)” value is on record as 35% in the assay on Rhizoctonia solani AG-1 (2 ppm) and 75% in the assay with Rhizoctonia solani AG-1 (50 ppm).
On to `CNC(=O)C(=COC)c1ccccc1CON=C(C)c1cccc(OC(F)=Cc2cc(C)cc(C)c2)c1` [Compound 58], for which the “RCV (Fungicidal Activities, C.V.)” value in assay [1] (concentration 50 ppm) was found to be 100%. Besides, the “CGM (Fungicidal Activities, C.V.)” value with Botrytis cinerae was 8%. Besides, in the assay with Phytophthora infestans, the “TLB (Fungicidal Activities, C.V.)” value is on record as 0%. Besides, the “WLR (Fungicidal Activities, C.V.)” value in the assay with Puccinia recondita (concentration 50 ppm) was determined as 98%. In addition, the “BPM (Fungicidal Activities, C.V.)” value with Erysiphae graminis (concentration 50 ppm) is on record as 98%. In addition, in the assay on Rhizoctonia solani AG-1 (concentration 50 ppm), the “RSB (Fungicidal Activities, C.V.)” value worked out at 23%.
On to `CON=C(C(=O)OC)c1ccccc1CON=C(C)c1cccc(OC(F)=Cc2ccc(C)c(C)c2)c1` [Compound 67], for which the “RCV (Fungicidal Activities, C.V.)” value in assay [1] (concentration 2 ppm), in assay [1] (concentration 10 ppm) and in assay [1] (concentration 50 ppm) was 100% throughout. The “CGM (Fungicidal Activities, C.V.)” value with Botrytis cinerae stood at 37%. The “TLB (Fungicidal Activities, C.V.)” value in the assay with Phytophthora infestans was determined as 0%. Besides, the “WLR (Fungicidal Activities, C.V.)” value in the assay with Puccinia recondita (concentration 2 ppm) turned out to be 99%; in the assay on Puccinia recondita (concentration 10 ppm) it was 100%; in the assay on Puccinia recondita (concentration 50 ppm) it was 100%. In addition, the “BPM (Fungicidal Activities, C.V.)” value in the assay on Erysiphae graminis (concentration 2 ppm) was found to be 99%; in the assay with Erysiphae graminis (concentration 10 ppm), 100%; in the assay with Erysiphae graminis (concentration 50 ppm), 100%. The “RSB (Fungicidal Activities, C.V.)” value was 10% in the assay on Rhizoctonia solani AG-1 (concentration 2 ppm), 43% with Rhizoctonia solani AG-1 (concentration 10 ppm) and 100% in the assay on Rhizoctonia solani AG-1 (concentration 50 ppm).
With `COC=C(C(=O)OC)c1ccccc1CON=Cc1cccc(OC(F)=Cc2ccc(OC)cc2)c1` [Compound 9], the “RCV (Fungicidal Activities, C.V.)” value in assay [1] (concentration 2 ppm) is 8%; in assay [1] (concentration 10 ppm), 83%; in assay [1] (concentration 50 ppm) it was 100%. Moreover, the “CGM (Fungicidal Activities, C.V.)” value in the assay on Botrytis cinerae was 53%. In addition, in the assay on Phytophthora infestans, the “TLB (Fungicidal Activities, C.V.)” value was determined as 12%. Besides, the “WLR (Fungicidal Activities, C.V.)” value in the assay on Puccinia recondita (concentration 2 ppm) is 95%; in the assay with Puccinia recondita (concentration 10 ppm), 98%; with Puccinia recondita (concentration 50 ppm) it was 100%. Besides, the results for the “BPM (Fungicidal Activities, C.V.)” value with Erysiphae graminis (concentration 2 ppm), in the assay on Erysiphae graminis (concentration 10 ppm) and in the assay with Erysiphae graminis (concentration 50 ppm) were 55%, 99% and 100%, respectively. Also, the “RSB (Fungicidal Activities, C.V.)” value in the assay on Rhizoctonia solani AG-1 (concentration 50 ppm) is 50%.
Turning to `CCOc1ccc(C(=C(F)Oc2cccc(C=NOCc3ccccc3C(=NOC)C(=O)NC)c2)C(F)(F)F)cc1` [Compound 144], the “RCV (Fungicidal Activities, C.V.)” value in assay [1] (concentration 2 ppm) was 88%; in assay [1] (concentration 50 ppm) it was 96%. For the same compound, the “CGM (Fungicidal Activities, C.V.)” value in the assay on Botrytis cinerae turned out to be 0%. For the same compound, the “TLB (Fungicidal Activities, C.V.)” value in the assay on Phytophthora infestans is 0%. Moreover, in the assay on Puccinia recondita (concentration 50 ppm), the “WLR (Fungicidal Activities, C.V.)” value was found to be 86%. The “BPM (Fungicidal Activities, C.V.)” value in the assay on Erysiphae graminis (concentration 2 ppm) is on record as 0%; in the assay on Erysiphae graminis (concentration 50 ppm), 95%. The “RSB (Fungicidal Activities, C.V.)” value with Rhizoctonia solani AG-1 (concentration 50 ppm) was found to be 47%.
